{"source": "ChEMBL document CHEMBL5465560", "about": "“Selectivity Literature for EUbOPEN Chemogenomic Library” (2024)", "key": {"[1]": {"target": "T1, Cytoplasmic tyrosine-protein kinase BMX (Homo sapiens) (UniProt P51813)", "T1 sequence (whole entry)": "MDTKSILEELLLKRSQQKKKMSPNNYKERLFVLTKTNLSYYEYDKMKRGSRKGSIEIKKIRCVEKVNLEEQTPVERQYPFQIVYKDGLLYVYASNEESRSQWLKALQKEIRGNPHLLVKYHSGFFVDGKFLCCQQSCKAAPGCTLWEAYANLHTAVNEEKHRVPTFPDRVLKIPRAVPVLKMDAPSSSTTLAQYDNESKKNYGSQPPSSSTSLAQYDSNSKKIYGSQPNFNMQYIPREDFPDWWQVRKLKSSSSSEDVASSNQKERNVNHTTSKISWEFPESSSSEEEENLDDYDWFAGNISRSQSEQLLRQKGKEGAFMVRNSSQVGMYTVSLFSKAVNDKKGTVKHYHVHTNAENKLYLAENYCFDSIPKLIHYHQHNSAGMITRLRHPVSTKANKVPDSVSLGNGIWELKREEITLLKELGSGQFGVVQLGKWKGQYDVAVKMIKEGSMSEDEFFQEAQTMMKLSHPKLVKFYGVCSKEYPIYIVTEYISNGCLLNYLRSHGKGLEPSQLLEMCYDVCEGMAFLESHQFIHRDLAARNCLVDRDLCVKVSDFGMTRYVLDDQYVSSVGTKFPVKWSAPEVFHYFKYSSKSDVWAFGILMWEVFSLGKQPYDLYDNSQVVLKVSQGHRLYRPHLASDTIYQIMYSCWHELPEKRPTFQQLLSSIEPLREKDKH", "assay": "Selectivity interaction (KinomeScan (DiscoverX)) EUB0001049a BMX", "settings": "at 1 µM"}, "[2]": {"target": "Bromodomain and WD repeat-containing protein 1 (Homo sapiens) (UniProt Q9NSI6)", "sequence (Q9NSI6 whole entry)": "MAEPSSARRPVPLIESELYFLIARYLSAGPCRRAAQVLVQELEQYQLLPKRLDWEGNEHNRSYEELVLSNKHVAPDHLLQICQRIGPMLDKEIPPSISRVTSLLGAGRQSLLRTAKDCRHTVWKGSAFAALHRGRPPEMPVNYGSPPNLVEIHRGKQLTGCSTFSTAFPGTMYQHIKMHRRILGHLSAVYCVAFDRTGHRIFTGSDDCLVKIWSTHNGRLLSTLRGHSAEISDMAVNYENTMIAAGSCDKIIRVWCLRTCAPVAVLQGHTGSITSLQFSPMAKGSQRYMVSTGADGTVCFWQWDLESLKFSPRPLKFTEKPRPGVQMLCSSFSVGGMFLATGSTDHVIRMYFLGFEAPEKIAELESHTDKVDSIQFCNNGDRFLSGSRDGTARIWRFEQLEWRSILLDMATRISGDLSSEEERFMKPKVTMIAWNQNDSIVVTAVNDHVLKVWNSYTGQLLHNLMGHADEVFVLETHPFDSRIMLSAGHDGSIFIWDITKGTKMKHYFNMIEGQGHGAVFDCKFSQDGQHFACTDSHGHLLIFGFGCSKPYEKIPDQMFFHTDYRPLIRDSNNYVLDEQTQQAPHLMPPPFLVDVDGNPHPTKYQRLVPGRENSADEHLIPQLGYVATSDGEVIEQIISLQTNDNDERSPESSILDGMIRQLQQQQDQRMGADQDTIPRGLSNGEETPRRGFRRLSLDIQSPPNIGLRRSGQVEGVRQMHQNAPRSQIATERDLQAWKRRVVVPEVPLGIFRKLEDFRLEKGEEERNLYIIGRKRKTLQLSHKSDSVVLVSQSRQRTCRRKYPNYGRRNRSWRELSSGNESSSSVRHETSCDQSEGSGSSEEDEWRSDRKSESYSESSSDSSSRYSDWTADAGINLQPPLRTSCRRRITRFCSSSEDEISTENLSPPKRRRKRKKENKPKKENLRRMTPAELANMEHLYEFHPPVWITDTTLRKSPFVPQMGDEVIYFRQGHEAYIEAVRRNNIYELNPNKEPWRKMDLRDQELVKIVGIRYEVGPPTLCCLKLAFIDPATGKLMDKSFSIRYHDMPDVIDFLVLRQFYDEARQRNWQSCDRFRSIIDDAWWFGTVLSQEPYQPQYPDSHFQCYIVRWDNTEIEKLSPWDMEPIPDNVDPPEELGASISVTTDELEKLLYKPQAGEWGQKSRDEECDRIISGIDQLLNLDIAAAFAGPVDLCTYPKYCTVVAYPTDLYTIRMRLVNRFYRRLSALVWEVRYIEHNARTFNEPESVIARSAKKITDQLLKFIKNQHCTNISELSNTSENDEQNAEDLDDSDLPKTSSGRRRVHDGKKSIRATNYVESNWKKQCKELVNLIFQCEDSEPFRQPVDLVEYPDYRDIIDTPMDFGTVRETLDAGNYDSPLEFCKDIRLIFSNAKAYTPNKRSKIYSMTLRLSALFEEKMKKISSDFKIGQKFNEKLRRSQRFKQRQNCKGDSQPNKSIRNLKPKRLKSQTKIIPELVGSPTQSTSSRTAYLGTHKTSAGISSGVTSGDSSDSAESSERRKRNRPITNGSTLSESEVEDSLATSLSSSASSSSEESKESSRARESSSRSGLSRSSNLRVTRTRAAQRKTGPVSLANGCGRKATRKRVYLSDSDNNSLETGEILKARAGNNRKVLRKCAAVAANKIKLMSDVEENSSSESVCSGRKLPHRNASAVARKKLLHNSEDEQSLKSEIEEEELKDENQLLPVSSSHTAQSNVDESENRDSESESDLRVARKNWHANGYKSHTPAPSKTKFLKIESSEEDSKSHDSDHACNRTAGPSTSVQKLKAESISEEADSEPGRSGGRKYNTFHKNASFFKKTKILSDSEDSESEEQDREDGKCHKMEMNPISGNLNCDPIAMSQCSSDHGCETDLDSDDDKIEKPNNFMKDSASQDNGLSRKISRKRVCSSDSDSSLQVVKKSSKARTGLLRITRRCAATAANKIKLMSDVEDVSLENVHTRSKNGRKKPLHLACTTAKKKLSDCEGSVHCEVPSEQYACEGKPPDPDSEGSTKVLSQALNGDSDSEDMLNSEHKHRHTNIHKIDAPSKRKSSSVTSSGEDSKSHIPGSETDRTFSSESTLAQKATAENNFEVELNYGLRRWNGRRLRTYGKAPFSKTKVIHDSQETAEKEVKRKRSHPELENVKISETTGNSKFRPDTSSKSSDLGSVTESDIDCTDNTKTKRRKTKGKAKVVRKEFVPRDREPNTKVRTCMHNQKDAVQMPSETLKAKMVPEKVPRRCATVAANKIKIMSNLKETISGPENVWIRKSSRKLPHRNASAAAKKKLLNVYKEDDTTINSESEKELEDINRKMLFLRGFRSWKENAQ", "assay": "Selectivity interaction (Human bromodomain panel (DSF assay)) EUB0000233b BRWD1"}, "[3]": {"target": "Mitogen-activated protein kinase kinase kinase 20 (Homo sapiens) (UniProt Q9NYL2)", "settings": "at 10 µM"}, "[4]": {"target": "N-lysine methyltransferase SMYD2 (Homo sapiens) (UniProt Q9NRG4)", "sequence (Q9NRG4 whole entry)": "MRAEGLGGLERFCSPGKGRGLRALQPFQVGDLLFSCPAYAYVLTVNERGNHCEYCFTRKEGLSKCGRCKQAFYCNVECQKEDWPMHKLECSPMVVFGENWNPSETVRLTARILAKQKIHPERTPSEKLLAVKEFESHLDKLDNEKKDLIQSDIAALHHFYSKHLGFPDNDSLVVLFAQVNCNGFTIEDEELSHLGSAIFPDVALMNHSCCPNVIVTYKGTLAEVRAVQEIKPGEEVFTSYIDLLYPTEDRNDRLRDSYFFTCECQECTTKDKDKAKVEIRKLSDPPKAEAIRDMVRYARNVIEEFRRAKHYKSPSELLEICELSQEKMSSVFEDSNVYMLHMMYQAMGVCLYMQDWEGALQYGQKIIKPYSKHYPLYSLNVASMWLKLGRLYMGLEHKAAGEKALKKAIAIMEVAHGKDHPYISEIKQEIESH", "assay": "Selectivity interaction (Transferase panel (protein, RNA, and DNA methyltransferases. and EP300 (acetyltransferase))) EUB0000270b SMYD2"}, "[5]": {"target": "Tyrosine-protein kinase SYK (Homo sapiens, UniProt P43405)", "assay": "Selectivity interaction (ActivX KiNativ screen (kinase selectivity in THP-1 cell lysates)) EUB0000639a SYK", "assay_type": "subcellular", "settings": "lysate, at 5 µM"}, "[6]": {"target": "Protein-tyrosine kinase 2-beta (Homo sapiens) (UniProt Q14289)", "sequence (Q14289 whole entry, looked up)": "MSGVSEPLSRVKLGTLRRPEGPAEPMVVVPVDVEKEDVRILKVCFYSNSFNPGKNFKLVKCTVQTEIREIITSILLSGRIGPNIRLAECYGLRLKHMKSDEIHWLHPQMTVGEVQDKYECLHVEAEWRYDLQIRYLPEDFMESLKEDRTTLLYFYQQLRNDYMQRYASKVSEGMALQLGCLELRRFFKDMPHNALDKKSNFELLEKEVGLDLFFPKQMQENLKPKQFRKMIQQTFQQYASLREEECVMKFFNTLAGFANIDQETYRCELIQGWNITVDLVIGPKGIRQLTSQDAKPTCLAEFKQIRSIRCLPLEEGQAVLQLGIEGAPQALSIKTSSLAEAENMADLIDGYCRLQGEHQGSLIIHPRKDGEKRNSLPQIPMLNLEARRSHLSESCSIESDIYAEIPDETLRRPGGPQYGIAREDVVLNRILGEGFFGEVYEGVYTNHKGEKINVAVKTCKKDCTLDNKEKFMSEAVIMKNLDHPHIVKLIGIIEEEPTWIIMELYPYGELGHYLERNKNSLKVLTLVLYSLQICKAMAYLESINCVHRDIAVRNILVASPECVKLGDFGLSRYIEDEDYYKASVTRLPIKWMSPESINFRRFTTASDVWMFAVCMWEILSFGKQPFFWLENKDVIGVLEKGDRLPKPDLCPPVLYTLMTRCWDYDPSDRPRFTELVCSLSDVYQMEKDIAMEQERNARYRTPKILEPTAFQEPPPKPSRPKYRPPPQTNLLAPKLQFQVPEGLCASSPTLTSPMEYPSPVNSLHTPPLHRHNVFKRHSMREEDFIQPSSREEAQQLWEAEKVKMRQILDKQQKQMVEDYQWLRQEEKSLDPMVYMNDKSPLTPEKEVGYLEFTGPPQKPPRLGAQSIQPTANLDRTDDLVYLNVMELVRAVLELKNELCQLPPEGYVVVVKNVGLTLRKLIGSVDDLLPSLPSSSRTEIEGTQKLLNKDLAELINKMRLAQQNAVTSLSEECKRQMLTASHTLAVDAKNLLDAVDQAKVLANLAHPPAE", "assay": "Selectivity interaction (Ambit KINOMEscan and KiNATiv profiling in Jurkat cells) EUB0000090b PTK2B", "assay_type": "cell-based", "settings": "at 1 µM"}, "[7]": {"target": "MAP kinase-interacting serine/threonine-protein kinase 1 (Homo sapiens) (UniProt Q9BUB5)", "sequence (Q9BUB5 whole entry, looked up)": "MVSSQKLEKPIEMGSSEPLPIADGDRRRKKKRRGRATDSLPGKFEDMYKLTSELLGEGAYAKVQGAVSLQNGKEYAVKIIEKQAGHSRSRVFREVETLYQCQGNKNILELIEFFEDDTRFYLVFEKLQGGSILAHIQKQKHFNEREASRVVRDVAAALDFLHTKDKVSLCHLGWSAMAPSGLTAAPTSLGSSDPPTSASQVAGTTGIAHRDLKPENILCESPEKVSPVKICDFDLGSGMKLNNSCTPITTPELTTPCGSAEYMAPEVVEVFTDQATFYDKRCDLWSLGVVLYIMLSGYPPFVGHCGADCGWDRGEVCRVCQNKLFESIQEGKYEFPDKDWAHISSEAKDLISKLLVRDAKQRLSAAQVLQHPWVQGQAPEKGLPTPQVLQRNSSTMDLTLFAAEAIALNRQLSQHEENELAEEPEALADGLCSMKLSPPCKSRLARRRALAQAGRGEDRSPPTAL", "assay": "Selectivity interaction (Ambit KINOMEscan and KiNATiv profiling in Jurkat cells) EUB0000090b MKNK1", "assay_type": "cell-based", "settings": "at 1 µM"}, "[8]": {"target": "Bone morphogenetic protein receptor type-1A (Homo sapiens, UniProt P36894)", "settings": "at 10 µM"}, "[9]": {"target": "Mitogen-activated protein kinase 1 (Homo sapiens, UniProt P28482)", "sequence (P28482 whole entry)": "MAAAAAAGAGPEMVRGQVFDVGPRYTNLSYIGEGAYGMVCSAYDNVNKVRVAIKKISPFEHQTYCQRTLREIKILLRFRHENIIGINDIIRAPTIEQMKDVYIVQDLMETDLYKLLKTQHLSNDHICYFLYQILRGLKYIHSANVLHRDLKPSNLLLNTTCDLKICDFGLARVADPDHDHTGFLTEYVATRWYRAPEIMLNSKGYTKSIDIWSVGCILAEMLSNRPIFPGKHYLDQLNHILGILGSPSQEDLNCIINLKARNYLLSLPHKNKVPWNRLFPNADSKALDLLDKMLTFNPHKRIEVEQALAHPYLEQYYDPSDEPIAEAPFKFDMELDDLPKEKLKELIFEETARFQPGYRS", "settings": "at 10 µM"}, "[10]": {"target": "Serine/threonine-protein kinase VRK2 (Homo sapiens) (UniProt Q86Y07)", "sequence (Q86Y07 whole entry)": "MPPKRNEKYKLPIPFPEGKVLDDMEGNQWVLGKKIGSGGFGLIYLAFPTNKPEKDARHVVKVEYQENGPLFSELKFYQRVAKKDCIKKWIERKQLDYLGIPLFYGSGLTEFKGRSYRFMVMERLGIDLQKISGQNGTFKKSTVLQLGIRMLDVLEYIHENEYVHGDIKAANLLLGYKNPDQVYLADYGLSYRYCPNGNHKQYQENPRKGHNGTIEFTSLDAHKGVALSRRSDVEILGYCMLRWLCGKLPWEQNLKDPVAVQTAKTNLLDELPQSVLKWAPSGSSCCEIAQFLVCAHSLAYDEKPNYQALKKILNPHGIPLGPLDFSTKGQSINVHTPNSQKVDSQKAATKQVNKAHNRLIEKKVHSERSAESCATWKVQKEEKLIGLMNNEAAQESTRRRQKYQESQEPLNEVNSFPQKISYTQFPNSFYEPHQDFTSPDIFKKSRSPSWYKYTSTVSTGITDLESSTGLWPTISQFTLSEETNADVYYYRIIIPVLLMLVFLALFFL", "assay": "Selectivity interaction (KinomeScan (DiscoverX)) EUB0000607a VRK2", "settings": "at 10 µM"}, "[11]": {"target": "T2, Ephrin type-B receptor 3 (Homo sapiens) (UniProt P54753)", "T2 sequence (whole entry)": "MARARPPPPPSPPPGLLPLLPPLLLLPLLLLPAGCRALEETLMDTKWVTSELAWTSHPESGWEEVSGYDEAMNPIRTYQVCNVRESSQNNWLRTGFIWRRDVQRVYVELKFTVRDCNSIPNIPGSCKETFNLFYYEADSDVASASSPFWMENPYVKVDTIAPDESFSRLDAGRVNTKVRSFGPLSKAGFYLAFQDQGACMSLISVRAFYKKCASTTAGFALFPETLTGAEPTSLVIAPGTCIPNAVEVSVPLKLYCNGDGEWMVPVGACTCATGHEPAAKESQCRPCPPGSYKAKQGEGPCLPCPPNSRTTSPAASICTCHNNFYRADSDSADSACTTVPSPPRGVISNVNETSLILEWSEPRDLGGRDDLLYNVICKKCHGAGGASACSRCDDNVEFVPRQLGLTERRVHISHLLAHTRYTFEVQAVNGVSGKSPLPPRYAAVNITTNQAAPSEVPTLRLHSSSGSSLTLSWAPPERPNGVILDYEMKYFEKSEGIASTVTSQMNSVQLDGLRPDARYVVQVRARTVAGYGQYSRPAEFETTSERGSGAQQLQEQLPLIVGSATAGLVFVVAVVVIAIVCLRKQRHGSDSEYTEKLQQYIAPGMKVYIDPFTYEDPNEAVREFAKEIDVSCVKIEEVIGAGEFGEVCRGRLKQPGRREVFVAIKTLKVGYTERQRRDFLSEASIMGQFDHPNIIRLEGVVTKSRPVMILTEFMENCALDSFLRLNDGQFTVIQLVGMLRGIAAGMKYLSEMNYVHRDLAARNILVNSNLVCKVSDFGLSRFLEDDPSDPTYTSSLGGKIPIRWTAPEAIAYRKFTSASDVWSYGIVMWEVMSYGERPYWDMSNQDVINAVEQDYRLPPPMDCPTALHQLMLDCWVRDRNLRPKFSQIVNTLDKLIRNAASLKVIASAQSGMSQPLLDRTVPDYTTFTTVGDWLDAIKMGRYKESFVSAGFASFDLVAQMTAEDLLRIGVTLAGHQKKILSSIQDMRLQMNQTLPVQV", "assay": "Selectivity interaction (KinomeScan (DiscoverX)) EUB0000607a EPHB3", "settings": "at 10 µM"}}}
{"compound": "COc1cc(Nc2nc(C)cc(-c3cnn4nc(OC)ccc34)n2)cc(C(F)(F)F)c1", "values": [{"measurement": "% of control", "setting": "[1]", "value": 87, "unit": "%"}]}
{"compound": "CN(C)CCCOc1ccc(-c2cc(NCCCn3cccn3)nc(S(C)(=O)=O)n2)cc1", "values": [{"measurement": "dTM", "setting": "[2]", "value": "< 2", "unit": "K"}]}
{"compound": "CCN(CC)CCCCNc1ncc2cc(-c3cc(OC)cc(OC)c3)c(NC(=O)NC(C)(C)C)nc2n1", "values": [{"measurement": "% of control", "setting": "[3]", "value": 100, "unit": "%"}]}
{"compound": "Cc1cc(CN)cc(C)c1-c1ncn(C)c1-c1cncn1C", "values": [{"measurement": "% activity", "setting": "[4]; at 1 µM", "value": "> 90", "unit": "%"}, {"measurement": "% activity", "setting": "[4]; at 10 µM", "value": "> 80", "unit": "%"}]}
{"compound": "CC[C@@H]1[C@H](F)C(=O)N[C@@H]1COc1nccc2cc(C(N)=O)c(OC)cc12", "note": "[ZIMLOVISERTIB]", "values": [{"measurement": "% of inhibition", "setting": "[5]", "value": -8.7, "unit": "%"}]}
{"compound": "CN(C)C/C=C/C(=O)Nc1ccc(C(=O)N2CCCC(Nc3ncc(Cl)c(-c4c[nH]c5ccccc45)n3)C2)cc1", "note": "(configuration not stated)", "values": [{"measurement": "% of control", "setting": "[6]", "value": 93, "unit": "%"}, {"measurement": "% of control", "setting": "[7]", "value": 100, "unit": "%"}]}
{"compound": "Cc1cc([C@@H](C)Nc2ccccc2C(=O)O)c2nc(N3CCOCC3)cc(=O)n2c1", "note": "[AZD-6482]", "values": [{"measurement": "% of control", "setting": "[8]", "value": 98, "unit": "%"}, {"measurement": "% of control", "setting": "[9]", "value": 100, "unit": "%"}]}
{"compound": "CNC(=O)Nc1ccc(-c2nc(N3CC4CCC(C3)O4)c3cnn(C4CCC5(CC4)OCCO5)c3n2)cc1", "values": [{"measurement": "% of control", "setting": "[10]", "value": 100, "unit": "%"}, {"measurement": "% of control", "setting": "[11]", "value": 92, "unit": "%"}]}
